Here are results for 19 molecules from patent US7772177B2, “BIR domain binding compounds” (Aegera Therapeutics, Inc., priority 2005, dated 2010).

Test [1] addresses T1, GST-XIAP BIR3RING (Homo sapiens, UniProt P98170).
T1 construct: made in house; host or cells: E. coli DH5-alpha
Kind of test: Fluorescence polarization-based competition assay, XIAP Bir3-RING. Format: binding. The procedure: GST-XIAP BIR3RING: XIAP coding sequence amino acids 246-497 cloned into PGEX2T1 via BamH1 and AVA I. The plasmid was transformed into E. coli DH5α for use in protein expression and purification.
(§1) A fluorescent peptide probe, Fmoc-Ala-Val-Pro-Phe-Tyr(t-Bu)-Leu-Pro-Gly(t-Bu)-Gly-OH was prepared using standard Fmoc chemistry on 2-chlorotrityl chloride resin (Int. J. Pept. Prot. Res. 38:555-561, 1991). Cleavage from the resin was performed using 20% acetic acid in dichloromethane (DCM), which left the side chain still blocked. The C-terminal protected carboxylic acid was coupled to 4′-(aminomethyl)fluorescein (Molecular Probes, A-1351; Eugene, Oreg.) using excess diisopropylcarbodiimide (DIC) in dimethylformamide (DMF) at room temperature and was purified by silica gel chromatography (10% methanol in DCM). The N-terminal Fmoc protecting group was removed using piperidine (20%) in DMF, and purified by silica gel chromatography (20% methanol in DCM, 0.5% HOAc). Finally, the t-butyl side chain protective groups were removed using 95% trifluoroacetic acid containing 2.5% water and 2.5% triisopropyl silane. […] Compound #174 was also used as a fluorescent probe in this assay.
(§2) For all assays, the fluorescence and fluorescence-polarization was evaluated using a Tecan Polarion instrument with the excitation filter set at 485 nm and the emission filter set at 535 nm. For each assay, the concentration of the target protein was first establish by titration of the selected protein in order to produce a linear dose-response signal when incubated alone in the presence of the fluorescent probe. Upon establishing these conditions, the compounds potency (IC50) and selectivity, was assessed in the presence of a fix defined-amount of target protein and fluorescent probe and a 10 point serial dilution of the selected compounds. For each IC50 curve, the assays were run as followed: 25 ul/well of diluted compound in 50 mM MES buffer pH 6.5 were added into a black 96 well plate then 25 ul/well of bovine serum albumin (BSA) at 0.5 mg/ml in 50 mM MES pH 6.5. Auto-fluorescence for each compound was first assessed by performing a reading of the compound/BSA solution alone. Then 25 ul of the fluorescein probe diluted into 50 mM MES containing 0.05 mg/ml BSA were added and a reading to detect quenching of fluorescein signal done. Finally 25 ul/well of the target or control protein (GST-BIRs) diluted at the appropriate concentration in 50 mM MES containing 0.05 mg/ml BSA were added and the fluorescence polarization evaluated.
(§3) For each assay the relative polarization-fluorescence units were plotted against the final concentrations of compound and the IC50 calculated using the Grad pad prism software and/or Cambridge soft. The ki value were derived from the calculated IC50 value as described above and according to the equation described in Nikolovska-Coleska, Z. (2004) Anal Biochem 332, 261-273.
(§4) Compounds exemplified in Table 6 were tested and found to have IC50s in the following ranges: A: >10 μM; B: <10 μM; C: <1 μM using the fluorescence polarization assay, as shown in Table 5. Each of the IC50s was calculated from Graph Pad.

Test [2] concerns the target T2, XIAP Bir3-RING (GST-BIR 3RING) (Homo sapiens, UniProt P98170).
T2 construct: made in house; host or cells: E. coli DH5-alpha
Kind of test: Caspase de-repression assay using cellular extracts (apoptosome), XIAP Bir3-RING. Type of test: biochemical. The note with it: 293 cell S100 extract. The procedure:
100 ug of 293 cell S100 extract and 0.25 uM-2 uM of GST-Xiap fusion protein (GST-BIR 3RING, GST-linker BIR2 BIR3RING) were co-incubated with serial dilutions of compound (0.02 uM-40 uM). Extracts were activated by adding 1 mM dATP, 0.1 mM ALLN, 133 ug Cytochrome C (final concentrations), and incubating at 37° C. for 25 minutes. All reactions and dilutions used S100 buffer (50 mM Pipes pH 7.0, 50 mM KCl, 0.5 mM EGTA pH 8.0, 2 mM MgCl2 supplemented with 1/1000 dilutions of 2 mg/ml Cytochalisin B, 2, mg/ml Chymotstatin, Leupeptin, Pepstatin, Antipain, 0.1M PMSF, 1M DTT). Final reaction volume was 30 ul. Caspase-3 activity was measured by overlaying 30 ul of a 0.4 mM DEVD-AMC solution. AMC cleavage was measured in a TECAN spectrophotometer at 360 nm excitation and 444 nm emission, on a kinetic cycle of 1 hour with readings taken every 5 minutes. Caspase activity was calculated as Vo of AMC fluorescence/sec. Caspase de-repression by our compounds were compared to fully activated extract and activated extract repressed by the presence of XIAP fusion protein.
(§5) Results: Compounds were also tested in the apoptosome assay and the linker-BIR2/caspase-3 inhibition assay and found to have IC50s in the following ranges: A: >10 μM; B: <10 μM; C: <1 μM, as shown in Table 7.

Test [3] addresses T3, caspase-3 inhibited by linker BIR2-BIR3-RING of XIAP (Homo sapiens, UniProt P98170).
T3 construct: made in house; host or cells: E. coli DH5-alpha (GST-XIAP); E. coli AD494 (His-caspase-3)
In words: Caspase-3 linker-BIR2-BIR3-RING derepression assay. Type of test: biochemical. The protocol:
In order to determine the relative activity of the selected compound against BIR2, an in vitro assay was used where caspase-3 was inhibited by linker-BIR2 or linker BIR2-BIR3-RING of XIAP. Briefly, 1.5 ul of the enzyme, 0.25 uM to 2 uM of GST-Xiap fusion protein (GST-linker BIR2, GST-linker BIR2BIR3RING) were co-incubated with serial dilutions of compound (80 uM-0.04 uM). Caspase 3 activity was measured by overlaying 25 ul of a 0.4 mM DEVD-AMC solution. Final reaction volume was 100 ul. All dilutions were performed in caspase buffer (50 mM Hepes pH 7.4, 100 mM NaCl, 10% sucrose, 1 mM EDTA, 10 mM DTT, 0.1% CHAPS (Stennicke, H. R., and Salvesen, G. S. (1997). Biochemical characteristics of caspase-3, -6, -7, and -8. J. Biol. Chem. 272, 25719-25723)).
The fluorescent AMC released from the caspase-3 hydrolysis of the substrate was measured in a TECAN spectrophotometer at 360 nm excitation and 444 nm emission, on a kinetic cycle of 30 minutes with readings taken every 2 minutes. Caspase activity was calculated as Vo of AMC fluorescence/sec. Caspase de-repression by our compounds were compared to caspase-3 alone and caspase 3 repressed by the presence of XIAP fusion protein.
as §5

Test [4] concerns the target T4, GST-HIAP2 (cIAP-1) BIR 3 (Homo sapiens, UniProt Q13490).
T4 construct: made in house; host or cells: E. coli DH5-alpha
Kind of test: Fluorescence polarization-based competition assay, cIAP-1 Bir3. Format: binding. The procedure:
GST-HIAP2 (cIAP-1) BIR 3: HIAP2 coding sequence from amino acids 251-363 cloned into PGex4T3 via BamH1 and XhoI. The plasmid was transformed into E. coli DH5α for use in protein expression and purification.
as §1, §2, §3, §4

Test [5] addresses T5, GST-HIAP1(cIAP-2) BIR 3 (Homo sapiens, UniProt Q13489).
T5 construct: made in house; host or cells: E. coli DH5-alpha
Kind of test: Fluorescence polarization-based competition assay, cIAP-2 Bir3. Format: binding. The protocol:
GST-HIAP1(cIAP-2) BIR 3: HIAP1 coding sequence from amino acids 236-349, cloned into PGex4T3 via BamH1 and XhoI. The plasmid was transformed into E. coli DH5α for use in protein expression and purification.
as §1, §2, §3, §4

T4 sequence (Q13490 251-363): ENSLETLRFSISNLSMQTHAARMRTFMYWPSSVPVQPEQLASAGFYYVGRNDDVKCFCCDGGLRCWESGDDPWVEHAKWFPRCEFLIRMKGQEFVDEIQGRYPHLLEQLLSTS
T2 sequence (P98170 246-497): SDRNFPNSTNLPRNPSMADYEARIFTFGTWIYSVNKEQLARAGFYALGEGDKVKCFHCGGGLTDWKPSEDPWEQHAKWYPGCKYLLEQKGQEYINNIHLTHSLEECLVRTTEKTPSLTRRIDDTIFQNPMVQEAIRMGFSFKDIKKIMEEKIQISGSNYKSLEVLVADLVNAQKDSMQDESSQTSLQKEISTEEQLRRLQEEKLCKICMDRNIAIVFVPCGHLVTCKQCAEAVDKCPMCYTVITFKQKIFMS
T1 sequence (P98170 246-497): as above
T3 sequence (P98170 93-497): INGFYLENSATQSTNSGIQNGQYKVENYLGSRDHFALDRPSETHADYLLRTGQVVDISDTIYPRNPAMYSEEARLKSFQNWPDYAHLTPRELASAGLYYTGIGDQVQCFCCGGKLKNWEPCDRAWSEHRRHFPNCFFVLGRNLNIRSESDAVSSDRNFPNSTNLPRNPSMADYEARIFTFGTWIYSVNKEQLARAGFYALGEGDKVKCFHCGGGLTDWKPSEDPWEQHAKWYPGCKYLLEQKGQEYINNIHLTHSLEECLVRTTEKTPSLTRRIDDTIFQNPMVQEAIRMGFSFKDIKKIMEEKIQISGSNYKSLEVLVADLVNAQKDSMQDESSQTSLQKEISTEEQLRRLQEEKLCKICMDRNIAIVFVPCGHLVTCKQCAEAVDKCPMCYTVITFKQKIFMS
T5 sequence (Q13489 236-349): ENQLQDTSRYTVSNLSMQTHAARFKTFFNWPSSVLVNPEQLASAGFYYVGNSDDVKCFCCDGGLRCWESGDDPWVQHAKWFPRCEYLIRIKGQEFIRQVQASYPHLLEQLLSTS

For the molecule `CC[C@H](N)C(=O)N[C@H](C(=O)N1CCC[C@H]1CN(C(C)=O)[C@H](C)c1ccccc1)C(C)C` [Compound 7], the 50% inhibitory concentration (IC50) is more than 10000 nM in test [1], less than 1000 nM in test [2] and more than 10000 nM in test [3].
In the case of `CC(=O)N(CCCc1ccccc1)C[C@@H]1CCCN1C(=O)[C@@H](NC(=O)[C@H](C)N)C(C)C` [Compound 11], the half-maximal inhibitory concentration (IC50) is less than 10000 nM in test [1], less than 10000 nM in test [4], less than 10000 nM in test [5] and less than 1000 nM in test [2].
Turning to `CC(C)[C@H](NC(=O)[C@H](C)N)C(=O)N1CCC[C@H]1CN(CCc1ccccc1)C(=O)c1ccccc1` [Compound 24], the concentration for half-maximal inhibition (IC50) in test [1] is less than 1000 nM; in test [4], less than 1000 nM; in test [5], less than 1000 nM; in test [2], less than 1000 nM; in test [3], more than 10000 nM.
For the molecule `COCC(=O)N(CCc1ccccc1)C[C@@H]1CCCN1C(=O)[C@@H](NC(=O)[C@H](C)N)C(C)C` [Compound 25], the 50% inhibitory concentration (IC50) in test [1] was less than 10000 nM; in test [4] it was less than 1000 nM; in test [5], less than 1000 nM; in test [2] it was less than 1000 nM; in test [3], more than 10000 nM.
For the molecule `CN[C@@H](C)C(=O)N[C@H](C(=O)N1CCC[C@H]1CN(CCc1ccccc1)C(=O)OCc1ccccc1)C(C)(C)C` [Compound 26], the half-inhibitory concentration (IC50) in test [1] was less than 1000 nM; in test [4] it was less than 1000 nM; in test [5], less than 1000 nM; in test [2], more than 10000 nM; in test [3] it was more than 10000 nM.
Take `CC(C)[C@H](NC(=O)[C@H](C)N)C(=O)N1CCC[C@H]1CN(CCc1ccccc1)C(=O)COc1ccccc1` [Compound 28]: the IC50 was less than 1000 nM in test [1]; less than 1000 nM in test [4]; less than 1000 nM in test [5]; less than 1000 nM in test [2]; more than 10000 nM in test [3].
`CN[C@@H](C)C(=O)N[C@H](C(=O)N1CCC[C@H]1CN(CCc1ccccc1)C(=O)CN)C(C)(C)C` [Compound 32]: the IC50 in test [1] is less than 1000 nM; in test [4], less than 1000 nM; in test [5], less than 1000 nM; in test [2], less than 1000 nM; in test [3], more than 10000 nM.
With `CN[C@@H](C)C(=O)N[C@H](C(=O)N1CCC[C@H]1CN(CCc1ccccc1)C(=O)CCN)C(C)(C)C` [Compound 33], the IC50 in test [1] was less than 1000 nM; in test [4] it was less than 1000 nM; in test [5], less than 1000 nM; in test [2] it was less than 1000 nM; in test [3] it was more than 10000 nM.
Consider `CN[C@@H](C)C(=O)N[C@H](C(=O)N1CCC[C@H]1CN(CCc1ccccc1)C(=O)[C@H](N)CCc1ccccc1)C(C)(C)C` [Compound 58], for which the figures for the IC50 in test [1], in test [4] and in test [5] were less than 10000 nM, less than 1000 nM and less than 1000 nM, respectively.
As for `CN[C@@H](C)C(=O)N[C@H](C(=O)N1CCC[C@H]1CN(C[C@@H](C)c1ccccc1)C(=O)OCc1ccccc1)C(C)(C)C` [Compound 59], the half-inhibitory concentration (IC50) in test [1], in test [4] and in test [5] was less than 1000 nM throughout.
On to `CN[C@@H](C)C(=O)N[C@H](C(=O)N1CCC[C@H]1CN(C[C@H](C)c1ccccc1)C(=O)OCc1ccccc1)C(C)(C)C` [Compound 60], for which the concentration for half-maximal inhibition (IC50) was less than 1000 nM in test [1], less than 1000 nM in test [4] and less than 10000 nM in test [5].
For the molecule `C#CCOC[C@H](NC(=O)[C@@H](N)CO)C(=O)N1CCC[C@H]1CN(CCc1ccccc1)C(=O)C(F)(F)F` [Compound 61], the 50% inhibitory concentration (IC50) in test [1], in test [4] and in test [5] was less than 1000 nM in each case.
As for `CC(C)[C@H](NC(=O)[C@H](C)N)C(=O)N1CCC[C@H]1COCc1ccccc1` [Compound 63], the IC50 in test [1] was less than 10000 nM; in test [4], less than 10000 nM; in test [5], more than 10000 nM.
With `C[C@H](N)C(=O)N[C@H](C(=O)N1CCC[C@H]1COCc1ccccc1)C(C)(C)C` [Compound 64], the half-maximal inhibitory concentration (IC50) in test [1], in test [4] and in test [5] was less than 10000 nM each time.
With `CC(C)[C@H](NC(=O)[C@H](C)N)C(=O)N1CCC[C@H]1CN(CCCCOC(=O)c1ccccc1)CCc1ccccc1` [Compound 65], the IC50 in test [1], in test [4] and in test [5] was less than 1000 nM throughout.
Regarding `CC(C)[C@H](NC(=O)[C@H](C)N)C(=O)N1CCC[C@H]1CSCCc1ccccc1` [Compound 66], the IC50 in test [1], in test [4] and in test [5] was less than 10000 nM each time.
Regarding `CC(C)[C@H](NC(=O)[C@H](C)N)C(=O)N1CCC[C@H]1CS(=O)(=O)CCc1ccccc1` [Compound 67], the IC50 is more than 10000 nM in test [1], less than 10000 nM in test [4] and less than 10000 nM in test [5].
With `CN[C@@H](C)C(=O)N[C@H](C(=O)N1CCC[C@H]1CN(CCc1ccccc1)S(=O)(=O)Cc1ccccc1)C(C)(C)C` [Compound 68], the IC50 in test [1], in test [4] and in test [5] was less than 1000 nM throughout.
In the case of `CN[C@@H](C)C(=O)N[C@H](C(=O)N1CCC[C@H]1CN(CCc1ccccc1)S(=O)(=O)c1ccccc1)C(C)(C)C` [Compound 69], the IC50 in test [1], in test [4] and in test [5] was less than 1000 nM throughout.
